From US20260034135A1, “USE OF N6-BENZYLAMINOPURINE AS AN APPETITE SUPPRESSANT” (THE GOVERNING COUNCIL OF THE UNIVERSITY OF TORONTO, priority 2022, published 2026) come the findings set out here.

The structures appear in SMILES notation.

In this test the test system is Npy, Agrp, Pomc. Kind of test: Hypothalamic feeding neuropeptide expression in mice by qRT-PCR. In kind it is in vivo, CD-1 mice. The procedure:
All protocols using mice were approved by the University Animal Care Committee of the University of Toronto and were performed in accordance with the Canadian Council on Animal Care. Animal experiments were performed in three separate animal facilities: Medical Sciences Building (MSB), Centre for Cellular and Biomolecular Research (CCBR) and the Biological Sciences Facility (BSF) due to ongoing construction and housing changes. Facilities and dates are indicated in each experimental cohort. N6-benzylaminopurine (BAP; also called N6-benzyladenine) was obtained from Sigma (B3408, cell culture grade in powder form; CAS number 1214-39-7). Male and female CD-1 mice aged 6-7 weeks were acquired from Charles Rivers and acclimated on a chow diet for one week prior to experimentation. Mice were then weight-matched and placed on either a 60% high fat diet (HFD) or sucrose-matched control diet for 4 weeks (from Research Diets: 60% HFD D12492 and the sucrose-matched control diet […]). After 3 weeks on the diet, mice were acclimated for one week to the drinking apparatus, a 50 mL canonical tube with a drinking tube. After 4 weeks on the diet, the mice were again weight-matched and randomly assigned to either the control or BAP group. […] The average dosages achieved using this method are as follows: male HFD (200 mg/kg/day), male control (157 mg/kg/day), female HFD (189 mg/kg/day), and female control (129.9 mg/kg/day). The mice were exposed continuously to the solutions for a total of 33 days. One week prior to the end of the experiment (day 28), the mice were fasted for 4 hr and underwent intraperitoneal insulin tolerance testing (ITT). After 33 days, the mice were sacrificed, and their tissues were collected. RNA was isolated from the collected hypothalamic and used to quantify gene expression via qRT-PCR. […] All mice were kept on the 60% HFD throughout the exposure period. The male mice were fed their respective emulsion for 11, 14 or 27 days (as indicated), and the female mice were fed for 12 or 36 days (as indicated). On day 12, the one cohort of male mice underwent general anesthetic for the purpose of post-experiment Bruker scanning. The male mice were then fed their assigned emulsion 2 hr prior to sacrificing and tissue collection. […] Hypothalamic collected from the mice were then used to isolate RNA and quantify gene expression using quantitative reverse transcription polymerase chain reaction (qRT-PCR). For cell culture experiments, total RNA was isolated using PureLink RNA isolation kit (Thermofisher Scientific, Burlington, ON, Canada) according to the manufacturer's instruction with on column DNase step (PureLink DNAse kit) or DNase I treatment to remove genomic DNA. For mouse experiments, total RNA was isolated using mirVana PARIS RNA and native protein isolation kit (Thermofisher Scientific). […] Quantitative reverse transcription polymerase chain reaction (RT-qPCR) was performed with 12.5 ng of cDNA amplified with Platinum SYBR green qPCR SuperMix-UDG with ROX on an Applied Biosystems Prism 7900HT or PowerTrack Green Master Mix on an Applied Biosystems QuantStudio 5 and gene specific primers as per manufacturer's instructions (Table 1). Data was analyzed using […] and normalized to reference gene, either 60S ribosomal protein L7 (Rpl7) or Histone 3a (His).

Where [1] appears, read: female CD-1, 60% HFD, BAP in drinking water 33 days.
Setting [2] is: male CD-1, HFD, BAP emulsion 11 days, fed 2 hr prior to sacrifice, cohort CCBR.
[3] abbreviates: male CD-1, HFD, BAP emulsion 14 days, cohort BSF.
[4] abbreviates: male CD-1, HFD, BAP emulsion, 28 days cohort BSF (27 days per FIG. 22).
The mark [5] stands for this setting: male CD-1, sucrose-matched control diet, BAP in drinking water 33 days.

Consider `c1ccc(CNc2ncnc3nc[nH]c23)cc1` [BAP, N6-benzylaminopurine], for which the “hypothalamic Npy, Agrp, and Pomc expression” value (female CD-1, 60% HFD, 300 mg/kg BAP emulsion 36 days, cohort BSF) is “no changes”. Further, the “hypothalamic expression of feeding neuropeptides” value (female CD-1, 60% HFD, BAP emulsion 12 days, fed 16 hr prior to sacrifice, cohort CCBR (data not shown)) was “no significant changes”. Further, under setting [1], the “hypothalamic Agrp mRNA expression” value is “no significant changes”, the “hypothalamic Npy mRNA expression” value is “no significant changes” and the “hypothalamic Pomc mRNA expression” value is given as “decreased”. Also, for the setting “female CD-1, sucrose-matched control diet, BAP in drinking water 33 days, trend to increased Npy and AgRP”, the “hypothalamic feeding neuropeptide expression (Npy, Agrp, Pomc)” value is “do not have significant changes”. Further, the “hypothalamic feeding-related neuropeptide expression (Npy, Agrp, Pomc) vs control” value (male CD-1, 60% HFD, BAP in drinking water 33 days) is reported as “did not have any significant changes”. Besides, under setting [2], the “hypothalamic Agrp mRNA expression” value is “significantly increased”, the “hypothalamic Npy mRNA expression” value is given as “significantly increased” and the “hypothalamic Pomc mRNA expression” value is recorded as “no significant changes”. Moreover, under setting [3], the “hypothalamic Agrp expression” value is on record as “modest increase”, the “hypothalamic Npy expression” value is recorded as “modest increase” and the “hypothalamic Pomc expression” value is listed as “no change”. Under setting [4], the “hypothalamic Agrp expression” value is recorded as “modest increase”, the “hypothalamic Npy expression” value is reported as “modest increase” and the “hypothalamic Pomc expression” value is reported as “no change”. Moreover, under setting [5], the “hypothalamic AgRP expression vs control” value is reported as “significantly higher”, the “hypothalamic Npy expression vs control” value is “significantly higher” and the “hypothalamic Pomc mRNA expression vs control” value was “no change”.
